The target in one data set is p3813 (Homo sapiens, UniProt Q15759). The experiment in a line: p3813 kinase K (Ki) and IC50 values. The class given is biochemical.
The next data set addresses p38a (Homo sapiens, UniProt Q16539). The experiment in a line: p38a kinase K (Ki) and IC50 values. It counts as biochemical.
Data set [1] can be described thus: Oral bioavailability in the dog. Conditions: in vivo, estimated.
The test system of the next data set is p38a and p3813. The experiment in a line: Estimated enzyme inhibition from drug levels relative to Ki and IC50. The protocol:
The concentration based on free fraction is at or above 740 nM for the duration of the dosing interval. Cmax is approximately 2 μM based on the first dose.

The nature of data set [2]: PK profile of the Day 1, 3 and 5 oral dosing regimen (drug levels). The class given is in vivo, human. An excerpt: This study investigated the efficacy, safety and tolerability of two different dosing regimens of 3-[5-amino-4-(3-cyanobenzoyl)-pyrazol-1-yl]-N-cyclopropyl-4-methyl benzamide added to SoC (systemic corticosteroids and/or antibiotics) versus placebo added to SoC in subjects with severe acute exacerbations of asthma. The proposed doses take into account trough levels based on PK modelling to ensure that the drug rapidly achieves and remains at effective concentrations between doses.
Overall, a dose-dependent reduction in TNF-α levels has been observed following doses ranging from 0.1 to 75 mg 3-[5-amino-4-(3-cyanobenzoyl)-pyrazol-1-yl]-N-cyclopropyl-4-methylbenzamide, although flattening of this effect to between 45 to 50% of placebo levels occurred between doses of 30 and 75 mg. A number of PK studies have been performed looking at both dosing intervals (Days 1, 3 and 5 (FIGS. 1-4, top panels) versus Days 1, 4 and 7 (FIGS. 1-4 bottom panels)), as well as dose levels (approximately 75/40/40 mg (FIG. 1); approximately 75/20/20 (FIG. 2); approximately 40/40/40 mg (FIG. 3); approximately 40/20/20 mg (FIG. 4), etc.). Based on exposures of the various regimens, there is limited benefit in dosing beyond Day 5 for a typical exacerbation.

Data set [3] in a line: Oral bioavailability in the monkey. Particulars: in vivo, estimated.
Data set [4] is described as follows: Oral bioavailability in the rat. Particulars: in vivo, estimated.
Data set [5] can be described thus: Plasma protein binding, free fraction in human plasma samples. It counts as in vitro ADME.

Structures are written as SMILES.

Chain of p3813 (Q15759 whole entry): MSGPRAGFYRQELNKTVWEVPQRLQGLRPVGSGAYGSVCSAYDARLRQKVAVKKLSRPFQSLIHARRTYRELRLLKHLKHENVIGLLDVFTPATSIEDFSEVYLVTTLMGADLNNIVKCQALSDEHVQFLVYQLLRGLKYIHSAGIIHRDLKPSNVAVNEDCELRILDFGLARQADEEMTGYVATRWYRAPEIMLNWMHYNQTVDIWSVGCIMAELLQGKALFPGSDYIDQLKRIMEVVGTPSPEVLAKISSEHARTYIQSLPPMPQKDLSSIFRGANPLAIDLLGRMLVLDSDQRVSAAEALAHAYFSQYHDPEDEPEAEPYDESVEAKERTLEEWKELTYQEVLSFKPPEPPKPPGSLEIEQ
Chain of p38a (Q16539 whole entry): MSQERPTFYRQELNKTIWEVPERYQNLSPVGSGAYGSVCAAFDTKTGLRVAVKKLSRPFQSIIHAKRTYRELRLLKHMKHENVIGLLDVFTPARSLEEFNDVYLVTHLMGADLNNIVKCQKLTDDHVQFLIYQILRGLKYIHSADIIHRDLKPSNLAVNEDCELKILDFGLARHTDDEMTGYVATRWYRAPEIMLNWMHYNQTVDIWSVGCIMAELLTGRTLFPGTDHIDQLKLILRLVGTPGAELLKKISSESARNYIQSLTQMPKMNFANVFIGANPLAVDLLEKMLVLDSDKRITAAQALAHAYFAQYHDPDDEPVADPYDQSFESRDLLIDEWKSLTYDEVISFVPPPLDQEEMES

The IC50 is the concentration that gives 50% inhibition. Usually Ki stands for a measure of affinity in units of concentration, obtained from inhibition or displacement. As usually defined, the bioavailability is the share of a dose that reaches the circulation, judged against a reference dose that is usually intravenous. By Cmax is commonly meant the peak of the concentration-time curve. By fraction unbound is commonly meant the share of the substance not bound to proteins or other matrix. Take `Cc1ccc(C(=O)NC2CC2)cc1-n1ncc(C(=O)c2cccc(C#N)c2)c1N` [3-[5-amino-4-(3-cyanobenzoyl)-pyrazol-1-yl]-N-cyclopropyl-4-methylbenzamide]: on p3813, inhibition was half-maximal at 106 nM (IC50) and the Ki is 72 nM. At p38a, this compound displayed an IC50 of 37 nM and a Ki of 49 nM. Further, in data set [1], the bioavailability is 87%. Besides, in the data set with p38a and p3813, the “duration of >99% enzyme inhibition” value is 6 days and the enzyme inhibition is > 99%. In data set [2] (dosing at Day 1, 3 and 5), the drug levels maintained result is given as “above 220 ng/mL” and the plasma concentration came out at 5700 nM. Besides, in data set [2] (for the duration of the dosing interval), the “concentration based on free fraction” value is recorded as ≥ 740 nM. Further, in data set [2] (human, plasma, oral, based on the first dose), the Cmax is ~2000 nM. Also, the bioavailability in data set [3] was 90%. In addition, the bioavailability in data set [4] was 93%. Also, in data set [5], the fraction unbound was 0.13 to 0.25.

(Values after patent US10617674B2, “Dosage regimen for the treatment of acute exacerbations of inflammatory conditions” (MEREO BIOPHARMA 1 LIMITED, priority 2016, dated 2020).)
